Data published in patent US8987256B2, “Oxo-heterocyclic substituted carboxylic acid derivatives and the use thereof” (Bayer Intellectual Property GmbH, priority 2008, dated 2015).
pEC50: −log10 of the molar value.

What was measured:
Type in all cases: biochemical
[1] = molecular target: T1, soluble guanylate cyclase (sGC) (Rattus norvegicus, UniProt P20595); experiment: Activating action at the sGC enzyme in vitro (PPi detection, luciferase)
T1 construct: made in house; host or cells: baculovirus/Sf9 insect cells
T1 sequence (P20595 1-619): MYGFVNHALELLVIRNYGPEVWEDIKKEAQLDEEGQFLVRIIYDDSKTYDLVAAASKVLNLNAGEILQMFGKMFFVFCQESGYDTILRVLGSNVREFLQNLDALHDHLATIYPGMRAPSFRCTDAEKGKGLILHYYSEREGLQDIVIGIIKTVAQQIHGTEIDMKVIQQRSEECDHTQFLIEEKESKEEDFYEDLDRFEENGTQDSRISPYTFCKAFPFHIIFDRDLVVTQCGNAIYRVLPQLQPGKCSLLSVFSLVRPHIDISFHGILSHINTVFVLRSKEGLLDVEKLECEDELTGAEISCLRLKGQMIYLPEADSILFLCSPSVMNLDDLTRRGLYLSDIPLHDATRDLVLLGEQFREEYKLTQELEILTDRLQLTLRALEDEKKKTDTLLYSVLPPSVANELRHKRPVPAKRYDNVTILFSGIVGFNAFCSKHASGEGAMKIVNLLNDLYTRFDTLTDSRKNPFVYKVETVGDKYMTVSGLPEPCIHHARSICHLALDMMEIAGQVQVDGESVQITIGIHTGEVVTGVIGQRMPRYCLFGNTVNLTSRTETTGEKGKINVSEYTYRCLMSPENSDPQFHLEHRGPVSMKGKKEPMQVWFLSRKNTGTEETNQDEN
T1 sequence (P19686 1-690 partner): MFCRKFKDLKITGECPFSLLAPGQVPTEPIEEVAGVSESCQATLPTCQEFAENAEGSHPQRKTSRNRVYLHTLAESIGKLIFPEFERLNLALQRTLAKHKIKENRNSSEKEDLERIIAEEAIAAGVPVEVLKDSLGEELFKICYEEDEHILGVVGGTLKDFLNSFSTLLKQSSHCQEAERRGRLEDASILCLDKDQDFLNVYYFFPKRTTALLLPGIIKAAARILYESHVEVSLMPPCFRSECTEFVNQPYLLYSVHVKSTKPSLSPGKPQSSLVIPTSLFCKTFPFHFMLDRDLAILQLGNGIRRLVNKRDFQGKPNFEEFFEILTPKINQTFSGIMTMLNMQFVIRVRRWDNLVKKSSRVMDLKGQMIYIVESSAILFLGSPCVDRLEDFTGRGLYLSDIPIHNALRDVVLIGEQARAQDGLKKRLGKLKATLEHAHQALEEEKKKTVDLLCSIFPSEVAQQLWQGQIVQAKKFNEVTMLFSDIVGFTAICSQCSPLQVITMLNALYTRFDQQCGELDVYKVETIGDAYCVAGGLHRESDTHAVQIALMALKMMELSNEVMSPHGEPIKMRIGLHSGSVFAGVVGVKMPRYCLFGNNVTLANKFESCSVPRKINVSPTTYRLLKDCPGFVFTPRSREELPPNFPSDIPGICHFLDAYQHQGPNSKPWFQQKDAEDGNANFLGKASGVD
Procedure, shortened: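 Rat sGC (0–10 nM) preincubated 10 min at room temperature with compound in TEA buffer, pH 7.5; reaction started with GTP (1.25 mM solution). PPi formed read continuously by luciferase luminescence; stimulation expressed relative to unstimulated enzyme. Heme-free enzyme tested after 30 min with 25 μM ODQ.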

[2] = molecular target: T2, Heme-free sGC (recombinant soluble guanylate cyclase) (Rattus norvegicus, UniProt P20595); experiment: Stimulation of recombinant soluble guanylate cyclase (sGC) in vitro, heme-free enzyme
T2 construct: made in house; host or cells: baculovirus/Sf9 insect cells
T2 sequence (P20595 1-619): T1 sequence (P20595 1-619)
T2 sequence (P19686 1-690 partner): T1 sequence (P19686 1-690 partner)
Method: Investigations on the stimulation of recombinant soluble guanylate cyclase (sGC) by the compounds according to the invention with and without sodium nitroprusside, and with and without the heme-dependent sGC inhibitor 1H-1,2,4-oxadiazolo-(4,3a)-quinoxalin-1-one (ODQ) are carried out by the method described in detail in the following reference: M. Hoenicka, E. M. Becker, H. Apeler, T. Sirichoke, H. Schroeder, R. Gerzer and J.-P. Stasch, “Purified soluble guanylyl cyclase expressed in a baculovirus/Sf9 system: Stimulation by YC-1, nitric oxide, and carbon oxide”, J. Mol. Med. 77 (1999), 14-23. The heme-free guanylate cyclase is obtained by adding Tween 20 to the sample buffer (0.5% in the final concentration).
(§1) The activation of sGC by a test substance is reported as n-fold stimulation of the basal activity.

[3] = molecular target: T3, Heme-containing sGC (recombinant soluble guanylate cyclase) (Rattus norvegicus, UniProt P20595); experiment: Stimulation of recombinant soluble guanylate cyclase (sGC) in vitro, heme-containing enzyme
T3 construct: made in house; host or cells: baculovirus/Sf9 insect cells
T3 sequence (P20595 1-619): T1 sequence (P20595 1-619)
T3 sequence (P19686 1-690 partner): T1 sequence (P19686 1-690 partner)
Excerpt: Hoenicka, E. M. Becker, H. Apeler, T. Sirichoke, H. Schroeder, R. Gerzer and J.-P. Stasch, “Purified soluble guanylyl cyclase expressed in a baculovirus/Sf9 system: Stimulation by YC-1, nitric oxide, and carbon oxide”, J. Mol. Med. 77 (1999), 14-23. The heme-free guanylate cyclase is obtained by adding Tween 20 to the sample buffer (0.5% in the final concentration).
as §1

For O=C(O)CCc1cccc(NC(=O)C(c2ccc(CN3N=C(c4ccccc4)OCC3=O)cc2)C2CCCC2)c1 (single isomer, unassigned) [Example 103, 3-{3-[(Cyclopentyl{4-[(5-oxo-2-phenyl-5,6-dihydro-4H-1,3,4-oxadiazin-4-yl)methyl]phenyl}acetyl)amino]phenyl}propanoic acid], which “MEC (minimum effective concentration), activating action at the sGC enzyme” value [1] is on record?
The value was 20 nM.

And the pEC50 ([1]; read-out: EC50 (concentration at 50% of maximum efficacy), activating action at the sGC enzyme)?
The pEC50 was 6.42.

And the “Stimulation (n-fold) of heme-free sGC, basal” value ([2]; 0.1 μM Example 103)?
The value was 1.1 n-fold.

What about the “Stimulation (n-fold) of heme-free sGC, basal” value ([2]; 1 μM Example 103) of the same compound?
Its value is 2.4 n-fold.

What about the “Stimulation (n-fold) of heme-free sGC, basal” value ([2]; 10 μM Example 103) of the same compound?
The value was 13.9 n-fold.

What about the “Stimulation (n-fold) of heme-free sGC, basal” value ([2]; 100 μM Example 103) of the same compound?
The value was 56.1 n-fold.

What about the “Stimulation (n-fold) of heme-containing sGC, basal” value ([3]; 0.1 μM Example 103) of the same compound?
The value was 1.2 n-fold.

What about the “Stimulation (n-fold) of heme-containing sGC, +0.1 μM DEA/NO” value (from here on “Stimulation (n-fold) … +0.1 μM DEA/NO”) ([3]; 0.1 μM Example 103) of the same compound?
Its value is 6.9 n-fold.

And the “Stimulation (n-fold) of heme-containing sGC, +10 μM ODQ” value (shortened to “Stimulation (n-fold) … +10 μM ODQ”) ([3]; 0.1 μM Example 103)?
Its value is 5.8 n-fold.

And the “Stimulation (n-fold) of heme-containing sGC, basal” value ([3]; 1 μM Example 103)?
The value was 1.4 n-fold.

And the “Stimulation (n-fold) … +0.1 μM DEA/NO” value ([3]; 1 μM Example 103)?
The value was 7.8 n-fold.

And the “Stimulation (n-fold) … +10 μM ODQ” value ([3]; 1 μM Example 103)?
The value was 8.5 n-fold.

And the “Stimulation (n-fold) of heme-containing sGC, basal” value ([3]; 10 μM Example 103)?
Its value is 6.2 n-fold.

And the “Stimulation (n-fold) … +0.1 μM DEA/NO” value ([3]; 10 μM Example 103)?
Its value is 13.5 n-fold.

And the “Stimulation (n-fold) … +10 μM ODQ” value ([3]; 10 μM Example 103)?
Its value is 36.8 n-fold.

And the “Stimulation (n-fold) of heme-containing sGC, basal” value ([3]; 100 μM Example 103)?
Its value is 22.3 n-fold.

And the “Stimulation (n-fold) … +0.1 μM DEA/NO” value ([3]; 100 μM Example 103)?
Its value is 35.6 n-fold.

And the “Stimulation (n-fold) … +10 μM ODQ” value ([3]; 100 μM Example 103)?
Its value is 91.8 n-fold.

And the “Effect of combination with the NO donor DEA/NO on sGC stimulation” value ([3]; combination with DEA/NO)?
The value was “no synergistic effect”.
